Source: EP4656642A1, “ESTROGEN RECEPTOR PROTEOLYSIS TARGETING CHIMERA COMPOUND AND USE THEREOF” (GAN & LEE PHARM CO., LTD, priority 2023, dated 2024)

Key:
Format in all cases: cell-based
MCF-7 cells = test: Inhibition of cell proliferation of MCF-7 cells (CCK-8, 9 days); settings: treated for 9 days, CCK-8 kit (Table 6)
Outline: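 Read-out was CCK-8 viability after 9-day continuous exposure (37°C, 5% CO2) of MCF-7 cells plated at 800/well in 10% FBS DMEM across several compound concentrations. Values are proliferation IC50s.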

ERα [1] = biological target: T1, ERα (Homo sapiens, UniProt P03372); test: Degradation of ERα in MCF-7 cells (immunoblotting, 4 h)
T1 sequence (P03372 1-595): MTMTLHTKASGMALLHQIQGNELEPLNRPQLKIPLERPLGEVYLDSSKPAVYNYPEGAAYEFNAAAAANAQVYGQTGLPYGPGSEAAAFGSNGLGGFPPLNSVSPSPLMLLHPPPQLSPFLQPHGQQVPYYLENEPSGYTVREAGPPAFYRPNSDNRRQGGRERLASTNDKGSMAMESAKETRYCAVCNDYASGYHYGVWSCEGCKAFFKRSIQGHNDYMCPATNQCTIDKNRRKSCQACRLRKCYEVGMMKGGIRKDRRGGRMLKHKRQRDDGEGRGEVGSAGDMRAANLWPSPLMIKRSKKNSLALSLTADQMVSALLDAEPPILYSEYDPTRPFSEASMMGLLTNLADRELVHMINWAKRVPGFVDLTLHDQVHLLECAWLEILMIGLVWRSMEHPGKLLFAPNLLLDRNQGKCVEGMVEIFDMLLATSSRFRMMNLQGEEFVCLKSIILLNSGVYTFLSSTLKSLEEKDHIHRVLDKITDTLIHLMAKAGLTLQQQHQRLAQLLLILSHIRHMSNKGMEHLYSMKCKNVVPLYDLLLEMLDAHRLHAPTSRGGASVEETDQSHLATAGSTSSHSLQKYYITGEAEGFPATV
Outline: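 Degradation rate reflects ERα band intensity, corrected to an internal reference protein, relative to control. Values come from Western blotting of lysates from MCF-7 cells exposed 4 h at 37°C to compounds at final concentrations of 0.15-1000nM.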

ERα [2] = biological target: T1, ERα; test: Degradation of ERα in T-47D cells (immunoblotting, 4 h); set-up: host or cells: T-47D
Outline: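 ERα protein levels were assessed by immunoblot of RIPA lysates (with protease inhibitor) after 4 h exposure at 37°C. Compound was added in DMSO to T-47D cells at final concentrations of 0.15-1000 nM.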

Row | IC50 (MCF-7 cells) [nM] | Degradation rate (%) of ERα in MCF-7 cells (ERα [1]; 1nM compound) [%] | Degradation rate (%) of ERα in MCF-7 cells (ERα [1]; 10nM compound) [%] | Degradation rate (%) of ERα in T-47D cells (ERα [2]; 1nM compound) [%] | Degradation rate (%) of ERα in T-47D cells (ERα [2]; 10nM compound) [%] | SMILES
1 | 49.7 | 60 | 72 | 74 | 88 | CN(C1CCN(c2ccc([C@@H]3c4ccc(O)cc4CC[C@@H]3c3ccccc3)cc2)CC1)[C@H]1CC[C@@H](C(=O)N2CCC3(CC2)COc2c3ccc3c2CN(C2CCC(=O)NC2=O)C3=O)CC1 (some centres unmarked) [B35]
2 | 9.05 | 19 | 68 | 34 | 83 | O=C1CCC(N2Cc3c(ccc4c3OCC43CCN(C4CC5CCCC(C4)N5C(=O)C4CCN(c5ccc([C@@H]6c7ccc(O)cc7CC[C@@H]6c6ccccc6)cc5)CC4)CC3)C2=O)C(=O)N1 (some centres unmarked) [D1]
3 | 3620 | 31 | 29 | 61 | 68 | O=C1CCC(N2Cc3c(ccc4c3OCC43CCN(C4CC5CC4CN5C(=O)C4CCN(c5ccc([C@@H]6c7ccc(O)cc7CC[C@@H]6c6ccccc6)cc5)CC4)CC3)C2=O)C(=O)N1 (some centres unmarked) [D2]
4 | 6.58 | 38 | 60 | 34 | 73 | O=C1CCC(N2Cc3c(ccc4c3OCC43CCN(C4CC5CC4CN5C4CC5(CCN(c6ccc([C@@H]7c8ccc(O)cc8CC[C@@H]7c7ccccc7)cc6)CC5)C4)CC3)C2=O)C(=O)N1 (some centres unmarked) [D3]
5 | 3580 | 41 | 69 | 54 | 79 | O=C1CCC(N2Cc3c(ccc4c3OCC43CCN(C4CN(C(=O)C5CCN(c6ccc([C@@H]7c8ccc(O)cc8CC[C@@H]7c7ccccc7)cc6)CC5)C4)CC3)C2=O)C(=O)N1 (some centres unmarked) [D4]
6 | 180 | 61 | 58 | 68 | 80 | O=C1CCC(N2Cc3c(ccc4c3OCC43CCN(CC4CN(C(=O)C5CCN(c6ccc([C@@H]7c8ccc(O)cc8CC[C@@H]7c7ccccc7)cc6)CC5)C4)CC3)C2=O)C(=O)N1 (some centres unmarked) [D5]
7 | 33000 | 38 | 59 | 59 | 84 | COC1(CN2CCC3(CC2)COc2c3ccc3c2CN(C2CCC(=O)NC2=O)C3=O)CCN(C(=O)C2CCN(c3ccc([C@@H]4c5ccc(O)cc5CC[C@@H]4c4ccccc4)cc3)CC2)CC1 (some centres unmarked) [D6]
8 | 11400 | 9 | 62 | 33 | 75 | O=C1CCC(N2Cc3c(ccc4c3OCC43CCN(C(=O)[C@H]4CC[C@H](OC5CCN(c6ccc([C@@H]7c8ccc(O)cc8CC[C@@H]7c7ccccc7)cc6)CC5)CC4)CC3)C2=O)C(=O)N1 (some centres unmarked) [D8]
9 | 10.8 | 22 | 55 | 52 | 82 | C[C@@H]1Cc2c([nH]c3ccccc23)[C@@H](c2c(F)cc(N3CCC(C(=O)N4CCC(N5CCC6(CC5)COc5c6ccc6c5CN(C5CCC(=O)NC5=O)C6=O)[C@H](F)C4)CC3)cc2F)N1CC(F)F (some centres unmarked) [D9]
10 | 12.5 | 3 | 58 | 24 | 77 | C[C@@H]1Cc2c([nH]c3ccccc23)[C@@H](c2c(F)cc(N3CCC4(CC3)CC(N3CC[C@@H](N5CCC6(CC5)COc5c6ccc6c5CN(C5CCC(=O)NC5=O)C6=O)[C@@H](F)C3)C4)cc2F)N1CC(F)F (some centres unmarked) [D10]
11 | 19.2 | 6 | 66 | 52 | 82 | C[C@@H]1Cc2c([nH]c3ccccc23)[C@@H](c2c(F)cc(N3CCC(N4CC[C@@H](N5CCC6(CC5)COc5c6ccc6c5CN(C5CCC(=O)NC5=O)C6=O)[C@@H](F)C4)CC3)cc2F)N1CC(F)F (some centres unmarked) [D11]
12 | 186 | 42 | 68 | 54 | 82 | CN(C[C@H]1CC[C@H](C(=O)N2CCC3(CC2)COc2c3ccc3c2CN(C2CCC(=O)NC2=O)C3=O)CC1)[C@H]1CCN(c2ccc([C@@H]3c4ccc(O)cc4CC[C@@H]3c3ccccc3)cc2)C[C@H]1F (some centres unmarked) [D13]
13 | 12.6 | 39 | 75 | 57 | 82 | O=C1CCC(N2Cc3c(ccc4c3OCC43CCN(C(=O)C4CCN(CC5(F)CCN(c6ccc([C@@H]7c8ccc(O)cc8CC[C@@H]7c7ccccc7)cc6)CC5)CC4)CC3)C2=O)C(=O)N1 (some centres unmarked) [E1]
14 | 0.103 | 64 | 63 | 62 | 79 | C[C@@H]1Cc2cc(O)ccc2C(c2c(F)cc(N3CCC4(CCN(CC(=O)N5CCC6(CC5)COc5c6ccc6c5CN(C5CCC(=O)NC5=O)C6=O)CC4)CC3)cc2F)N1CC(F)F (some centres unmarked) [F4]
15 | 203 | 63 | 63 | 61 | 68 | C[C@@H]1Cc2cc(O)ccc2C(c2c(F)cc(N3CCC4(CCN(CC(=O)N5CCC6(CC5)COc5c6ccc6c5CN(C5CCC(=O)NC5=O)C6=O)C4)CC3)cc2F)N1CC(F)F (some centres unmarked) [F8]
16 | 4360 | 46 | 45 | 42 | 38 | C[C@@H]1Cc2cc(O)ccc2C(c2c(F)cc(N3CCC(N4CCC(C(=O)N5CCC6(CC5)COc5c6ccc6c5CN(C5CCC(=O)NC5=O)C6=O)CC4)CC3)cc2F)N1CC(F)F (some centres unmarked) [F9]
17 | 3.81 | 53 | 43 | 59 | 65 | C[C@@H]1Cc2cc(O)ccc2C(c2c(F)cc(N3CCC(C(=O)N4CCC(N5CCC6(CC5)COc5c6ccc6c5CN(C5CCC(=O)NC5=O)C6=O)[C@H](F)C4)CC3)cc2F)N1CC(F)F (some centres unmarked) [F10]
18 | 4.13 | 25 | 35 | 22 | 53 | O=C1CCC(N2Cc3c(ccc4c3OCC43CCN(C4CCN(CC5CCN(c6ccc([C@@H]7c8ccc(O)cc8CC[C@@H]7c7ccccc7)cc6)CC5)CC4)CC3)C2=O)C(=O)N1 (some centres unmarked) [G1]
19 | 749 | 29 | 73 | 45 | 81 | O=C1CCC(N2Cc3c(ccc4c3OCC43CCN(C4CC5(CCN(C6CC7(CCN(c8ccc([C@@H]9c%10ccc(O)cc%10CC[C@@H]9c9ccccc9)cc8)CC7)C6)CC5)C4)CC3)C2=O)C(=O)N1 (some centres unmarked) [G8]
20 | 18.2 | 45 | 66 | 62 | 85 | O=C1CCC(N2Cc3c(ccc4c3OCC43CCN(C4CC5CCC(C4)N5C(=O)C4CCN(c5ccc([C@@H]6c7ccc(O)cc7CC[C@@H]6c6ccccc6)cc5)CC4)CC3)C2=O)C(=O)N1 (some centres unmarked) [G10]
21 | 890 | 38 | 56 | 55 | 80 | C[C@H]1C[C@@H](N2CCC3(CC2)COc2c3ccc3c2CN(C2CCC(=O)NC2=O)C3=O)CCN1C(=O)C1CCN(c2ccc([C@@H]3c4ccc(O)cc4CC[C@@H]3c3ccccc3)cc2)CC1 (some centres unmarked) [G11]
22 | 9.27 | 24 | 57 | 47 | 81 | O=C1CCC(N2Cc3c(ccc4c3OCC43CCN(C4CCN(C(=O)C5CCN(c6ccc(C7c8ccc(O)cc8CCC7c7ccccc7)cc6)CC5)CC4F)CC3)C2=O)C(=O)N1 (centres unmarked) [G12]
